Experimental data reported in patent US20070172436A1 (priority 2006, published 2007).

Key:
[1] = co-pending application Ser. No. 11/242,306; cited from earlier work
[2] = Solubilization of ascorbic acid in propylene glycol at room temperature, with or without urea; type: physicochemical; conditions: 7.0% ascorbic acid, 5.0% urea, 88.0% propylene glycol, stirring about 16 hours
Description: The solubilization process was carried out at room temperature.
The two sets of experiments (EXAMPLE 5 and EXAMPLE 6) were carried out side by side for comparison.

[3] = Solubilization of ascorbic acid in absolute ethanol at room temperature, with or without urea; conditions: 2.00% urea, 95.50% ethanol, stirring about 16 hours
Description: The solubilization process was conducted at room temperature.
The mixture was kept at room temperature, while stirring until dissolved. Vitamin E acetate was added to the mixture. Vitamin E acetate was solubilized in the mixture.

Row | SMILES | concentration of dissolved ascorbic acid in nonaqueous alcohol solvents with urea and/or urea derivatives [1] | dissolution in propylene glycol [2] | dissolution in absolute ethanol [3]
1 | O=C1O[C@H]([C@@H](O)CO)C(O)=C1O [ascorbic acid, L-ascorbic acid] | ≤ 28 % by weight |  | 
2 | NC(N)=O [urea, Urea] |  | completely dissolved | completely dissolved
